The target in experiment [1] is T1, Cq-FABP (Cherax quadricarinatus, UniProt L0I6Z9). Put plainly: Steady-state FRET between the single Trp (W49) and ANS, Trp quenching and recovery by PA. The following applies: read-out: Kd,PA. The format is binding. How it is done: Fluorescence emission spectra were measured at 25°C on a Cary-Eclipse spectrofluorimeter (Varian, CA, USA) equipped with a thermostated cell holder, using solutions (70 µl) placed in microcuvettes (pathlength, 0.3 cm). The binding of non-fluorescent fatty acids (PA, OA, LA, EPA and DHA) to Cq-FABP was measured indirectly by equilibrium displacement experiments using ANS as a fluorescent probe, either by measuring the fluorescence emission of ANS or by measuring the FRET between tryptophan and ANS, resulting in the quenching of donor fluorescence. The excitation wavelength was then set at 296 or 350 nm for tryptophan or ANS, respectively; the slit widths and PMT voltage were adjusted to optimize the fluorescence signal at 25°C. For titration experiments, the fluorescence emission spectrum of tryptophan or ANS was measured and the integrated fluorescence signal of tryptophan (315–360 nm) or ANS (440–600 nm) was calculated. For samples containing high concentrations of ANS, the inner-filter effect was not negligible and was corrected. UV-visible absorption spectra were carried out on a Uvikon XL spectrophotometer.

The target in experiment [2] is T1, Cq-FABP. Put plainly: cis-Parinaric acid fluorescence intensity titration and competitive displacement. To be noted: calculated from the IC50 values (Eq. 2) using the fluorescence intensity of cis-parinaric acid; 7 µM CPA, 5 µM Cq-FABP; read-out: Kd,FA. The format is binding. The source says: Cis-parinaric acid and DAUDA were characterized by fluorescence emission in the 380–500 nm region (λmax,em: 410 nm) and in the 480–650 nm region (λmax,em: 540 nm), respectively (excitation wavelengths were set at 320 or 335 nm for cis-parinaric acid or DAUDA, respectively). The fluorescence intensity enhancement upon binding to Cq-FABP was monitored on a Cary-Eclipse spectrofluorimeter as indicated above. All the fluorescence emission intensities were corrected for the inner-filter effect. The emission intensity of a given fluorophore in the presence of Cq-FABP was also systematically corrected for the emission intensity of the free fluorophore. The calculation of Kd,FA was performed by measuring the IC50 value (inhibition concentration 50%) characterizing each non-fluorescent FA. As DAUDA poorly binds to Cq-FABP (see results section), only cis-parinaric acid (CPA) was used for measuring IC50 values. Titration and equilibrium displacement experiments using CPA were performed in buffer C (supplemented with 10% DMSO (v/v)). For the determination of IC50 values, the number of complexes corresponding to [CPA] = 7 µM and [Cq-FABP] = 5 µM was varied by increasing the concentration of non-fluorescent FA. The IC50 value corresponds to the concentration of non-fluorescent FA that displaces 50% of CPA from the fatty acid binding site of Cq-FABP and is related to Kd,FA through the Cheng-Prusoff relationship: [drawing 2] (2)

The text below walks through data of PMC3528769, “Comparative Study of the Fatty Acid Binding Process of a New FABP from Cherax quadricarinatus by Fluorescence Intensity, Lifetime and Anisotropy” (PLoS ONE, 2012).

T1 sequence (L0I6Z9 entry or part of it): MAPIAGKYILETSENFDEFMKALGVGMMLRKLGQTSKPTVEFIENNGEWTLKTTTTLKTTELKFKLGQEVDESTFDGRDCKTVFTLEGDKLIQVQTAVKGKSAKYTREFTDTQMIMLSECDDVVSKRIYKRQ

With `CCCCCCCCCCCCCCCC(=O)O` [PA, Palmitic acid], the Kd on Cq-FABP [1] (FRET efficiency parameter, from slope of Kd app,PA versus [ANS] (Fig. 5B), average Kd,ANS 27.85 µM) was 830 nM; at Cq-FABP [1] (FRET efficiency parameter, y-intercept of Kd app,PA versus [ANS] (Fig. 5B)), 1900 nM; at Cq-FABP [1] (Trp fluorescence intensity parameter, from slope of Kd app,PA versus [ANS] (Fig. 5A), average Kd,ANS 27.85 µM) it was 1290 nM; on Cq-FABP [1] (Trp fluorescence intensity parameter, y-intercept of Kd app,PA versus [ANS] (Fig. 5A)), 1470 nM; at Cq-FABP [2], 1800 ± 400 nM.
